Experimental data: PMC12298876, “Angiotensin-Converting Enzyme Inhibitory Activity of Selected Phenolic Acids, Flavonoids, Their O-Glucosides, and Low-Molecular-Weight Phenolic Metabolites in Relation to Their Oxidation Potentials” (Metabolites, 2025)
Where “and” joins values, the source holds several entries; their conditions need not be identical. Equal entries are not always repeated. Where two headings read alike, the source gives them in different places. Marks after values point to notes of the source that are not given here.

How the values were obtained:
[1] = target: T1, Angiotensin-converting enzymes (ACE) from porcine kidneys (EC 3.4.15.1) (Sus scrofa, UniProt F1RRW5); experiment: biochemical; conditions: for ACE inhibitory activity lower than that of reduced glutathione (GSH): ratio to the IC50 of GSH; for lower IC50 in relation to the respective aglycone / higher value of IC50 as compared to the IC50 of the respective aglycon: ACE inhibition; for lower IC50 in relation to the respective aglycone: glycoside vs aglycon; for higher value of IC50 as compared to the IC50 of the respective aglycon: glucoside vs aglycon
T1 construct: Angiotensin-converting enzymes (ACE) from porcine kidneys (EC 3.4.15.1) were purchased from Sigma-Aldrich; purchased Sigma-Aldrich (St. Louis, MO, USA); host or cells: porcine kidneys (tissue-derived enzyme)
T1 sequence (F1RRW5 34-1309): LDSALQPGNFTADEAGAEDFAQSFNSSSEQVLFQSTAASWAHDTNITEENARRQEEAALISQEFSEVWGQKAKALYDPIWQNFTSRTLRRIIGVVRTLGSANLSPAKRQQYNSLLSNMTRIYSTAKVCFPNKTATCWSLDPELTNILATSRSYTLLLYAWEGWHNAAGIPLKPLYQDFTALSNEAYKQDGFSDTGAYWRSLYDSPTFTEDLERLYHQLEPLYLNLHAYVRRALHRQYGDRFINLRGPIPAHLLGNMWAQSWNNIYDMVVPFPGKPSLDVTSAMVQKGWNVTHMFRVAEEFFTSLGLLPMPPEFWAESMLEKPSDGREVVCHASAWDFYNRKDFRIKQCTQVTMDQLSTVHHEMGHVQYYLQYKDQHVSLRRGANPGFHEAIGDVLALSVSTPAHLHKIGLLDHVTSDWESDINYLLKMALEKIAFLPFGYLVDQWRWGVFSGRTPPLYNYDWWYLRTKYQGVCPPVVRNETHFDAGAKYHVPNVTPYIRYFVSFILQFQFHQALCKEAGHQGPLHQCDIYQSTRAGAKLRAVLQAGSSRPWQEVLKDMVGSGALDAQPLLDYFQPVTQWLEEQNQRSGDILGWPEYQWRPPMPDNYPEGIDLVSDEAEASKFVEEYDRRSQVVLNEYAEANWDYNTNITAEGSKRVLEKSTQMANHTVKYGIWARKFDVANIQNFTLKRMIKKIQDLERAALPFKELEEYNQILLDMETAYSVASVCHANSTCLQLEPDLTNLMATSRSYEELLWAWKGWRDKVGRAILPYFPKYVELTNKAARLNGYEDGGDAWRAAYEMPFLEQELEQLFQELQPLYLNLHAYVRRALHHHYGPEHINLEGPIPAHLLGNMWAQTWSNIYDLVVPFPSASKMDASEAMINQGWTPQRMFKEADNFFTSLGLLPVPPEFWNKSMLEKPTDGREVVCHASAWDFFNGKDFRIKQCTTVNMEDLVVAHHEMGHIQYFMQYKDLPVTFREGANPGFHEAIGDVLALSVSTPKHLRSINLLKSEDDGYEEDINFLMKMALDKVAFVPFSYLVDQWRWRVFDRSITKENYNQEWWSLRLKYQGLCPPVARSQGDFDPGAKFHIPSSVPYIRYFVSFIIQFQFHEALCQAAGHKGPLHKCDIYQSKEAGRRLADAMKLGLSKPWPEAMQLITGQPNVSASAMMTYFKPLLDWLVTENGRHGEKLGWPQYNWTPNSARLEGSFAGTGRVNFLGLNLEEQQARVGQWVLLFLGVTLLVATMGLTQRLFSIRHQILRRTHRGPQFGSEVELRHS
Procedure: Angiotensin-converting enzymes (ACE) from porcine kidneys (EC 3.4.15.1) were purchased from Sigma-Aldrich (St. Louis, MO, USA). A three-tris-base buffer was as follows: buffer A: 300 mM Tris-base buffer (pH 8.3) with 2 mM ZnCl2; buffer B: 150 mM Tris-base buffer (pH 8,3); and buffer C: 150 mM Tris-base buffer (pH 8.3) with […] NaCl. The substrate o-aminobenzoylglycyl-p-nitorphenylalanylproline (Abz-Gly-Phe(NO2)-Pro) was obtained from BACHEM (Bubendorf, Switzerland). Standards of phenolic acids, flavonoids, glucosides, and low-molecular-weight phenolic metabolites were obtained from Sigma-Aldrich (St. Louis, MO, USA) and Extrasynthese (Genay, France). Water was purified using the Mili-Q system (Milipore, Bedford, MA, USA).
Stock solutions at 1 mM of selected phenolic acids, flavonoids, their O-glucosides, and low-molecular-weight phenolic metabolites were prepared in 80% methanol. The concentration was confirmed by a UV measurement according to Franke et al.. A wide range of concentrations of each compound was prepared by serial dilutions in deionized water to determine the IC50 value. […] The ACE inhibitory activity was obtained from three repetitions (n = 3) for each concentration.
Angiotensin-converting enzyme (ACE) activity inhibitory assay was performed according to the method of Sentandreu and Toldra. The procedure was based on the hydrolysis of the internally quenched substrate o-aminobenzoylglycyl-p-nitorphenylalanylproline (Abz-Gly-Phe(NO2)-Pro) by the reaction of ACE. The fluorescence generated by the liberation of the product (the o-aminobenzoylglycine group) was read in a microplate multiscan fluorometer. The production of fluorescence was inhibited by the presence of functional compounds with an ACE inhibitory effect. The fluorescence was measured immediately after mixing (0 min) and then after 30 min of reaction at an excitation of 365 nm and an emission of 405 nm. To calculate the % of inhibition of ACE, the following equation was used:Relative ACE activity% = 100 − (ΔRFUsample × 100/ΔRFUnegative control), where ΔRFU = RFU at time 30 – RFU at time 0.

[2] = First anodic oxidation potential by differential pulse voltammetry (DPV); assay type: physicochemical; conditions: for Anodic Peak Potential Epa: DPV, first anodic peak, 0.25 mM standard in 0.1 M Britton-Robinson buffer pH 6.0 in 80% methanol, glassy carbon vs Ag/AgCl, 100 mV/s; for antioxidant power class based on the first oxidation potential: classes according to Blasco et al. [47]
Procedure: A potentiostat/galvanostat G 750 (Gamry Instruments, Warminster, USA) was used for voltametric experiments. A conventional three-electrode system: a 3 mm diameter glassy carbon working electrode (BAS MF-2012), an Ag/AgCl electrode as a reference electrode, and a platinum as counter electrode, was used in the study. Differential pulse voltametric experiments were performed with phenolic acids and flavonoids prepared in a 1:1 (v/v) mixture of 500 µM standard solution and […] Britton-Robinson (B-R) buffer (pH 6.0 in 80% methanol), which also served as a supporting electrolyte. The voltametric experiments were performed at room temperature using an electrochemical cell (volume 200 µL), to which the analyzed standard solution, mixed previously with the buffer solution, was introduced. The differential pulse voltammograms were acquired in the range of −100 to 1300 mV at a scanning rate of 100 mV/s. Before use, the surface of the glassy carbon electrode was carefully polished with 0.05 µm alumina paste, ultrasonically rinsed in deionized water, and then washed with methanol. This procedure was repeated after each cycle. For test purposes, the first anodic oxidation potential was recorded (mV).

[3] = porcine kidney ACE, substrate Abz-Gly-Phe(NO2)-Pro, fluorescence after 30 min, mean ± SD, read-out: IC50 Value (ACE inhibitory activity)
[4] = low-molecular-weight phenolic metabolites
[5] = IC50 Value (ACE inhibitory activity), porcine kidney ACE, substrate Abz-Gly-Phe(NO2)-Pro, fluorescence after 30 min, mean ± SD

Structure (SMILES) | IC50 [1, 3] | Anodic Peak Potential Epa [2] | further results
O=C(O)CCc1ccccc1O [2-HPPA, 3-(2-hydroxyphenyl)propionic acid] | 0.9329 ± 0.00642 mM | 781 ± 9 ^d mV | antioxidant power class based on the first oxidation potential [2, 4]: moderate antioxidant power (moderate antioxidant power (0.3 V < Epa < 0.8 V))
O=C(O)CCc1ccc(O)c(O)c1 [3,4-DHPPA, 3-(3,4-dihydroxyphenyl)propionic acid] | 0.612 ± 0.00651 mM | 218 ± 3 ^h mV | 
O=C(O)CCc1ccc(O)cc1O [3-2,4-DHPPA, 3-(2,4-dihydroxyphenyl)propionic acid] | 0.745 ± 0.00833 mM | 659 ± 8 ^e mV | antioxidant power class based on the first oxidation potential [2, 4]: moderate antioxidant power (moderate antioxidant power (0.3 V < Epa < 0.8 V))
O=C(O)Cc1cccc(O)c1 [3-HPAA, 3-hydroxyphenylacetic acid] | 0.679 ± 0.0077 mM | 883 ± 11 ^b mV | antioxidant power class based on the first oxidation potential [2, 4]: weak antioxidant power (weak antioxidant power (Epa ˃ 0.8 V))
O=C(O)c1ccc(O)cc1 [4-HBA, 4-hydroxybenzoic acid] | 0.788 ± 0.0111 mM | 961 ± 11 ^a mV | 
O=C(O)Cc1ccc(O)cc1 [4-HPAA, 4-hydroxyphenylacetic acid] | 1.391 ± 0.0102 mM | 815 ± 12 ^c mV | antioxidant power class based on the first oxidation potential [2, 4]: weak antioxidant power (weak antioxidant power (Epa ˃ 0.8 V))
O=C(O)CCc1ccc(O)cc1 [4-HPPA, 3-(4-hydroxyphenyl)propionic acid] | 0.49 mM and 0.491 mM | 664 ± 8 ^e mV | ACE inhibitory activity lower than that of reduced glutathione (GSH) [1]: ~12 fold; antioxidant power class based on the first oxidation potential [2, 4]: moderate antioxidant power (moderate antioxidant power (0.3 V < Epa < 0.8 V))
O=c1cc(-c2ccc(O)cc2)oc2cc(OC3O[C@H](CO)[C@@H](O)[C@H](O)[C@H]3O)cc(O)c12 (stereo partly drawn) [Apigenin-7-O-glucoside] | 0.218 ± 0.00253 mM | 841 ± 6 ^ab mV | lower IC50 in relation to the respective aglycone [1]: 35%
O=C(/C=C/c1ccc(O)c(O)c1)O[C@@H]1C[C@](O)(C(=O)O)C[C@@H](O)[C@H]1O [Chlorogenic acid] | 0.134 mM | 443 ± 9 ^d mV | ACE inhibitory activity lower than that of reduced glutathione (GSH) [1]: threefold
OCC1OC(Oc2cc3c(O)cc(O)cc3[o+]c2-c2ccc(O)c(O)c2)C(O)C(O)C1O (stereo not drawn) [Cyanidin-3-O-glucoside] | 0.185 ± 0.00258 mM | 373 ± 4 ^g mV | higher value of IC50 as compared to the IC50 of the respective aglycon [1]: 5%
Oc1cc(O)c2cc(O)c(-c3ccc(O)c(O)c3)[o+]c2c1 [Cyanidin] | 0.176 ± 0.00238 mM | 295 ± 3 ^h mV | antioxidant power class based on the first oxidation potential ([2]; flavonoids and glucosides): high antioxidant power (high antioxidant power (Ep < 0.3 V))
OCC1OC(Oc2cc3c(O)cc(O)cc3[o+]c2-c2cc(O)c(O)c(O)c2)C(O)C(O)C1O (stereo not drawn) [Delphinidin-3-O-glucoside] | 0.2088 ± 0.00133 mM | 453 ± 4 ^e mV | lower IC50 in relation to the respective aglycone [1]: 16%
Oc1cc(O)c2cc(O)c(-c3cc(O)c(O)c(O)c3)[o+]c2c1 [Delphinidin] |  | 259 ± 3 ^i mV | IC50 [1, 5]: 0.2477 ± 0.00185 mM
COc1cc(/C=C/C(=O)O)ccc1O [Ferulic acid] | 0.98 ± 0.0136 mM | 611 ± 6 ^c mV | IC50 ([1]; values of this study restated in mM in the discussion, read-out: IC50 (ACE inhibition)): 0.98 mM
N[C@@H](CCC(=O)N[C@@H](CS)C(=O)NCC(=O)O)C(=O)O [GSH, reduced glutathione, reference compound] | 0.0417 mM |  | 
O=C(O)c1cc(O)ccc1O [Gentisic acid] |  | 622 ± 8 ^c mV | IC50 ([1]; IC50 (ACE inhibition), values of this study restated in mM in the discussion): 0.834 mM; IC50 [1, 5]: 0.834 ± 0.00926 mM
COc1cc(CC(=O)O)ccc1O [HVA, 2-(3-methoxy-4-hydroxyphenyl)acetic acid] |  | 643 ± 5 ^e mV | IC50 [1, 5]: 1.46 mM; ACE inhibitory activity lower than that of reduced glutathione (GSH) [1]: about 35 fold; antioxidant power class based on the first oxidation potential [2, 4]: moderate antioxidant power (moderate antioxidant power (0.3 V < Epa < 0.8 V))
O=c1c(OC2OC(CO)C(O)C(O)C2O)c(-c2ccc(O)c(O)c2)oc2cc(O)cc(O)c12 [Hyperoside, quercetin-3-O-D-galactoside] |  | 307 ± 3 ^h mV | higher value of IC50 as compared to the IC50 of the respective aglycon [1]: 30%; IC50 [1, 5]: 0.1572 ± 0.00145 mM
O=c1c(OC2OC(CO)C(O)C(O)C2O)c(-c2ccc(O)cc2)oc2cc(O)cc(O)c12 (stereo not drawn) [Kaempferol-3-O-glucoside] |  | 359 ± 3 ^fg mV | lower IC50 in relation to the respective aglycone [1]: 16%; IC50 [1, 5]: 0.11 ± 0.00356 mM
O=c1c(O)c(-c2ccc(O)cc2)oc2cc(OC3OC(CO)C(O)C(O)C3O)cc(O)c12 (stereo not drawn) [Kaempferol-7-O-glucoside] | 0.0977 ± 0.00208 mM | 419 ± 6 ^f mV | lower IC50 in relation to the respective aglycone [1]: 26%
O=c1cc(-c2ccc(OC3OC(CO)C(O)C(O)C3O)c(O)c2)oc2cc(O)cc(O)c12 (stereo not drawn) [Luteolin-4′-O-glucoside] | 0.0889 ± 0.00168 mM | 828 ± 5 ^b mV | higher value of IC50 as compared to the IC50 of the respective aglycon [1]: 15%
O=c1cc(-c2ccc(O)c(O)c2)oc2cc(OC3OC(CO)C(O)C(O)C3O)cc(O)c12 (stereo not drawn) [Luteolin-7-O-glucoside] |  | 445 ± 3 ^e mV | lower IC50 in relation to the respective aglycone [1]: 20%; IC50 [1, 5]: 0.0615 ± 0.00162 mM
